“And” between values parts separate entries of the source, which are not always exact repeats. Identical values can stand only once.
What was measured:
[1] = system: Herpes sp; assay: Patients with recurrent herpetic lesions (cutaneous and genital), symptom recurrence; format: in vivo, Herpes virus (host: human patients); conditions: Acyclovir alone, oral, 3 daily doses of 200 mg, 10 days
[2] = system: Plasmodium chabaudi; assay: Experimental Plasmodium chabaudi infection, survival and parasitemia; format: in vivo, Plasmodium chabaudi (host: C57BL/6 mice); conditions: for Survival/Number of animals: 21 days observation
[3] = system: Candida sp; conditions: 20 HIV/AIDS patients per group, Fluconazole 400 mg/day × 5 days oral, Immunomodulator 10 mg/day × 5 days i.m.
[4] = system: M. tuberculosis-Erdman; parameters: species or system Mycobacterium tuberculosis (host: C57BL/6 mice); conditions: mouse, in vivo
[5] = system: TH-1 and TH-2 types cytokines (IL-2, IFN-gamma, IL-4, and IL-10); assay: Cytokine dosage (sandwich-ELISA, Con-A stimulated spleen culture supernatant) in experimental L. monocytogenes infection; format: in vivo, BALB/c mice
[6] = system: L. monocytogenes; assay: Experimental L. monocytogenes infection, lethal dose, survivors at 30 days; format: in vivo, Listeria monocytogenes (host: BALB/c mice); conditions: BALB/c mice, n = 10 per group, 2×10^6 L. monocytogenes i.p.; Immunomodulator 100 mg/kg single dose i.p.; Rifampicine 2 mg/kg and Gentamicin 2 mg/kg × 5 days
[7] = system: L. monocytogenes; conditions: experimental animals; PI0305373-3, U.S. Ser. No. 10/978,683, EPA 0426250.3.2405; cited from earlier work
[8] = system: HCV subtype I-b; assay: Clinical trial in hepatitis C patients, laboratorial parameters; conditions: two patients (A and D) of 5; Immunomodulator 25 mg weekly i.m., 12 months; no treatment interruption
[9] = Group D: Chloroquine 5 mg/kg single i.p. dose
[10] = Group E: Chloroquine 2 mg/kg single i.p. dose
[11] = Control (non-infected) BALB/c mice, Immunomodulator 5 mg/kg/day i.p. 7 days
[12] = Infected 48 h (2×10^4 L. monocytogenes i.p.), Immunomodulator 5 mg/kg/day i.p. 7 days prior to inoculation
[13] = Infected 72 h (2×10^4 L. monocytogenes i.p.), Immunomodulator 5 mg/kg/day i.p. 7 days prior to inoculation
[14] = Group G: Immunomodulator 100 mg/kg i.p. single dose

In the case of `Nc1nc(=O)c2ncn(COCCO)c2[nH]1` [Acyclovir, 2-amino-9-[(2-hydroxyethoxy)methyl]-3,9-dihydro-6H-purin-6-one], the “average recurrence period of time of the disease symptoms” value ([1]; first stage, 30 patients) is reported as 2 months and the “average recurrence period of symptoms” value ([1]; second stage, 15 patients) is reported as 2 months.
In the case of `CCN(CC)CCCC(C)Nc1ccnc2cc(Cl)ccc12` (stereo not drawn) [Chloroquine, N′-(7-chloroquinolin-4-yl)-N,N-diethyl-pentane-1,4-Diamine], the Survival/Number of animals ([2]; Group B: Chloroquine 15 mg/kg single i.p. dose) is reported as 6-6, the “Parasitemia (%) ± Standart deviation (SD)” value ([2]; Group B: Chloroquine 15 mg/kg single i.p. dose, day 5) is reported as 17 ± 0.7 (day 5) % and the “Parasitemia (%) ± Standart deviation (SD)” value ([2]; Group B: Chloroquine 15 mg/kg single i.p. dose, day 21) is reported as 8 ± 1.2 (day 21%. The “increase in survival rate compared to the control groups” value ([2]; Group D: Chloroquine 5 mg/kg) was 2 days, the Day of death [2, 9] was 10 days and the Survival/Number of animals [2, 9] was 0-6. For the same molecule, the “Parasitemia (%) ± Standart deviation (SD)” value ([2]; Group D: Chloroquine 5 mg/kg single i.p. dose, day 5) was 65 ± 0.9 (day 5) %, the “difference in the survival rate to the control groups” value ([2]; Group E: Chloroquine 2 mg/kg) was “no significant difference” and the Day of death [2, 10] was 8 days. For the same molecule, the Survival/Number of animals [2, 10] was 0-6 and the “Parasitemia (%) ± Standart deviation (SD)” value ([2]; Group E: Chloroquine 2 mg/kg single i.p. dose, day 5) was 89 ± 1.3 (day 5) %.
In the case of `OC(Cn1cncn1)(Cn1cncn1)c1ccc(F)cc1F` [Antifungal], the “% Respondents” value [3] is reported as 100% and the “Symptoms Average recurrence period” value ([3]; six months follow-up) is reported as 45 days.
For `NNC(=O)c1ccncc1` [INH, pyridine-4-carbohydrazide, reference compound], the “Bacillary load - Lung + Standard Deviation (SD)” value [4] was 3.52 ± 0.65 and the “Bacillary load - Spleen + Standard Deviation (SD)” value [4] was 4.82 ± 0.62.
“proteic aggregate of ammonium and magnesium phospholinoleate-palmitoleate anhydride [Immunomodulator]” gave an IFN-γ [5, 11] of 1012 ± 41 pg/mL, an Il-2 [5, 11] of 167 ± 11 pg/mL and an Il-4 [5, 11] of 63 ± 19 pg/mL. For the same molecule, the Il-10 [5, 11] was 227 ± 37 pg/mL, the IFN-γ [5, 12] was 1691 ± 62 pg/mL and the Il-2 [5, 12] was 206 ± 31 pg/mL. For the same molecule, the Il-4 [5, 12] was 75 ± 18 pg/mL, the Il-10 [5, 12] was 224 ± 17 pg/mL and the IFN-γ [5, 13] was 1884 ± 70 pg/mL. For the same molecule, the Il-2 [5, 13] was 248 ± 34 pg/mL, the Il-4 [5, 13] was 73 ± 11 pg/mL and the Il-10 [5, 13] was 221 ± 37 pg/mL. The “% surviving animals - 30 days” value [6] was 30%, the “Number surviving animals - 30 days” value [6] was 3 and the “Bacillary load - Lung + Standard Deviation (SD)” value [4] was 5.42 ± 0.59 and 4.85 ± 0.46. The “Bacillary load - Spleen + Standard Deviation (SD)” value [4] was 5.25 ± 0.61 and 4.93 ± 0.47, the Day of death ([2]; Group F: Immunomodulator 5 mg/kg × 5 days) was 11 days and the Survival/Number of animals ([2]; Group F: Immunomodulator 5 mg/kg × 5 days, start 1 day after infection) was 0-6. The “Parasitemia (%) ± Standart deviation (SD)” value ([2]; Group F: Immunomodulator 5 mg/kg × 5 days, day 5) was 54 ± 0.8 (day 5) %, the Day of death [2, 14] was 12 days and the Survival/Number of animals [2, 14] was 0-6. The “Parasitemia (%) ± Standart deviation (SD)” value ([2]; Group G: Immunomodulator 100 mg/kg i.p. single dose, day 5) was 52 ± 0.9 (day 5) %, the “increase in survival rate in relation to the control animals” value ([2]; Groups F and G: Immunomodulator 5 mg/kg × 5 days and 100 mg/kg single dose) was 3 to 4 days and the “protection against infection by lethal dose of L. monocytogenes” value [7] was “partial protection”. The “tolerance at the site of injection” value [8] was “mild pain and discomfort at the site of injection”.

Reference: patent US8889153B2, “Combination of immunomodulator and anti-pathogenic agent” (priority 2008, dated 2014)
